Test results: patent US10730865B2, “Compounds for modulating aquaporins” (APOGLYX AB, priority 2016, dated 2020)

Target: human aquaporin 9 (Homo sapiens (Human), UniProt O43315)
Assay: Calcein quenching fluostar assay (inhibition of human aquaporin 9)
Assay type: cell-based
Conditions: Human AQP9 cell line; example compounds used as 1 mM stock solutions in DMSO
Experimental: Calcein Quenching Fluostar Assay
A calcein quenching fluostar assay was performed in order to investigate the biological activity of the newly synthesized examples 1 to 57. This type of assay is disclosed in J. Biol. Chem., 2011, 286, 44319-44325 and Am. J. Physiol. Renal Physiol. (2010), 298, F224-230.
1) Two days prior to commencement of the assay, seed 10,000 cells/well of 96 well black clear bottom plate (Greiner Poly-lysin plate). A 1:1 mix of Dulbecco's Modified Eagle's Medium: Nutrient Mixture F-12 (DMEM: F12) was obtained from Gibco. Tetracycline stock of 5 mg/ml in 96% ethanol is used. Medium: DMEM/F12/10% Donor Bovine Serum, Human AQP9 cell line+1:270,000 tetracyclin, mouse AQP9 cell line+1:2,700,000 tetracycline.
2) Day of assay: Flick/slam off the medium and add 50 μl/well of loading solution: 5 ml DMEM/F12/10% Donor Bovine Serum, 25 μl Calcein AM—from freshly dissolved aliquot in 50 μl DMSO (VWR #734-1434), and 100 μl Probenecid.
3) Incubate the well for 90 minutes at 37° C.
4) Perform one wash with 75 μl wash buffer.
5) Add 75 μl of an example compound prepared in wash buffer per well.
Example compounds are prepared in 500 μl U bottom PP plates (NUNC). 2.7 μl Substance in DMSO are added to row A; 180 μl of wash buffer+1% DMSO are added to rows B—H. 90 μl from row A are transferred and mixed with all other wells (up to row G) to make a 3-fold dilution series.
6) Assay in FLUOstar Optima at 25° C. Settings buffer addition at 135 μl/seconds, add 75 μl/well, record time course for 30 seconds, add sucrose buffer 3.6 seconds into recording.
7) Normalization to initial in Excel.
8) Fit to “exponential decay” function in GraphPad Prism 5.0, then arrange half live shrinking values according to wells and fit dose-response curves.

human aquaporin 9, sequence (O43315 whole entry): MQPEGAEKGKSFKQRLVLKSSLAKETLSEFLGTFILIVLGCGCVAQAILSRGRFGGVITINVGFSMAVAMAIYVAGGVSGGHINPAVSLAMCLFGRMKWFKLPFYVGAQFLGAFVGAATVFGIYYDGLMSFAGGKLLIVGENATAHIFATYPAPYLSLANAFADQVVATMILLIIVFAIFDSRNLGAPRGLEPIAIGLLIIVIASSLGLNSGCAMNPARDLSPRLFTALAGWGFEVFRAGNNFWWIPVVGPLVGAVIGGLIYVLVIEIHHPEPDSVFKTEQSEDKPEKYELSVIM

Row | EC50 | pEC50 in the inhibition of human aquaporin 9 | SMILES
1 | 173 nM | – | CCc1nnc(SCC(=O)Nc2nnc(-c3ccc(OC)cc3)s2)n1-c1ccccc1 [Example 1, 2-[(5-ethyl-4-phenyl-4H-1,2,4-triazol-3-yl)sulfanyl]-N-[5-(4-methoxyphenyl)-1,3,4-thiadiazol-2-yl]acetamide]
2 | 59 nM | – | CCc1nnc(SCC(=O)Nc2nnc(-c3ccc(OC)cc3)s2)n1CC [Example 2, 2-[(diethyl-4H-1,2,4-triazol-3-yl)sulfanyl]-N-[5-(4-methoxyphenyl)-1,3,4-thiadiazol-2-yl]acetamide]
3 | 195 nM | 6.7 | CCn1c(Cc2ccccc2)nnc1SCC(=O)Nc1nnc(-c2ccc(OC)cc2)s1 [Example 3, 2-[(5-benzyl-4-ethyl-4H-1,2,4-triazol-3-yl)sulfanyl]-N-[5-(4-methoxyphenyl)-1,3,4-thiadiazol-2-yl]acetamide]
4 | 175 nM | – | CCn1c(OCC(=O)Nc2nnc(-c3ccc(OC)cc3)s2)nnc1-c1ccc(F)cc1 [Example 4, 2-{[4-ethyl-5-(4-fluorophenyl)-4H-1,2,4-triazol-3-yl]oxy}-N-[5-(4-methoxyphenyl)-1,3,4-thiadiazol-2-yl]acetamide]
5 | 455 nM | – | CCn1c(C)nnc1SCC(=O)Nc1nnc(-c2ccc(S(C)(=O)=O)cc2)s1 [Example 5, 2-[(4-ethyl-5-methyl-4H-1,2,4-triazol-3-yl)sulfanyl]-N-[5-(4-methanesulfonylphenyl)-1,3,4-thiadiazol-2-yl]acetamide]
6 | 192 nM | 6.7 | CCn1c(SCC(=O)Nc2nnc(-c3ccc(S(C)(=O)=O)cc3)s2)nnc1C(C)C [Example 6, 2-{[4-ethyl-5-(propan-2-yl)-4H-1,2,4-triazol-3-yl]sulfanyl}-N-[5-(4-methanesulfonylphenyl)-1,3,4-thiadiazol-2-yl]acetamide]
7 | 105 nM | 7 | CCn1c(SCC(=O)Nc2nnc(-c3ccc(S(C)(=O)=O)cc3)s2)nnc1C1CC1 [Example 7, 2-[(5-cyclopropyl-4-ethyl-4H-1,2,4-triazol-3-yl)sulfanyl]-N-[5-(4-methanesulfonylphenyl)-1,3,4-thiadiazol-2-yl]acetamide]
8 | 66 nM | 7.2 | CCc1nnc(SCC(=O)Nc2nnc(-c3ccc(S(C)(=O)=O)cc3)s2)n1CC [Example 8, 2-[(diethyl-4H-1,2,4-triazol-3-yl)sulfanyl]-N-[5-(4-methanesulfonylphenyl)-1,3,4-thiadiazol-2-yl]acetamide]
9 | 87 nM | – | CCn1c(SCC(=O)Nc2ccc(-c3ccc(OC)cc3)nn2)nnc1-c1ccc(F)cc1 [Example 9, 2-{[4-ethyl-5-(4-fluorophenyl)-4H-1,2,4-triazol-3-yl]sulfanyl}-N-[6-(4-methoxyphenyl)pyridazin-3-yl]acetamide]
10 | 101 nM | 7 | CCc1nnc(SCC(=O)Nc2nnc(-c3ccc(OC)cc3)s2)n1C [Example 10, 2-[(5-ethyl-4-methyl-4H-1,2,4-triazol-3-yl)sulfanyl]-N-[5-(4-methoxyphenyl)-1,3,4-thiadiazol-2-yl]acetamide]
11 | 394 nM | 6.4 | COc1ccc(-c2nnc(NC(=O)CSc3nnc(C)n3-c3ccccc3)s2)cc1 [Example 11, N-[5-(4-methoxyphenyl)-1,3,4-thiadiazol-2-yl]-2-[(5-methyl-4-phenyl-4H-1,2,4-triazol-3-yl)sulfanyl]acetamide]
12 | 57 nM | – | CCc1nnc(SCC(=O)Nc2nnc(-c3ccc(SC)cc3)s2)n1CC [Example 12]
13 | 101 nM | 7 | CCc1nnc(SCC(=O)Nc2nnc(-c3ccc(OCC(C)C)cc3)s2)n1CC [Example 13, 2-[(diethyl-4H-1,2,4-triazol-3-yl)sulfanyl]-N-{5-[4-(2-methylpropoxy)phenyl]-1,3,4-thiadiazol-2-yl}acetamide]
14 | 65 nM | 7.2 | CCc1ccc(-c2nnc(NC(=O)CSc3nnc(CC)n3CC)s2)cc1 [Example 14, 2-[(diethyl-4H-1,2,4-triazol-3-yl)sulfanyl]-N-[5-(4-ethylphenyl)-1,3,4-thiadiazol-2-yl]acetamide]
15 | 57 nM | – | CCCc1ccc(-c2nnc(NC(=O)CSc3nnc(CC)n3CC)s2)cc1 [Example 15, 2-[(diethyl-4H-1,2,4-triazol-3-yl)sulfanyl]-N-[5-(4-propylphenyl)-1,3,4-thiadiazol-2-yl]acetamide]
16 | 179 nM | – | CCCCc1ccc(-c2nnc(NC(=O)CSc3nnc(CC)n3CC)s2)cc1 [Example 16, 2-[(diethyl-4H-1,2,4-triazol-3-yl)sulfanyl]-N-[5-(4-butylphenyl)-1,3,4-thiadiazol-2-yl]acetamide]
17 | 127 nM | 6.9 | CCc1nnc(SCC(=O)Nc2nnc(-c3ccccc3)s2)n1CC [Example 17, 2-[(diethyl-4H-1,2,4-triazol-3-yl)sulfanyl]-N-(5-phenyl-1,3,4-thiadiazol-2-yl)acetamide]
18 | 124 nM | 6.9 | CCc1nnc(SCC(=O)Nc2nnc(-c3ccc4c(c3)CCO4)s2)n1CC [Example 18, 2-[(diethyl-4H-1,2,4-triazol-3-yl)sulfanyl]-N-[5-(2,3-dihydro-1-benzofuran-5-yl)-1,3,4-thiadiazol-2-yl]acetamide]
19 | 94 nM | – | CCc1nnc(SCC(=O)Nc2nnc(-c3ccc(CC(C)C)cc3)s2)n1CC [Example 19, 2-[(diethyl-4H-1,2,4-triazol-3-yl)sulfanyl]-N-{5-[4-(2-methylpropyl)phenyl]-1,3,4-thiadiazol-2-yl}acetamide]
20 | 79 nM | 7.1 | CCc1nnc(SCC(=O)Nc2nnc(-c3ccc(C(C)C)cc3)s2)n1CC [Example 20, 2-[(diethyl-4H-1,2,4-triazol-3-yl)sulfanyl]-N-{5-[4-(propan-2-yl)phenyl]-1,3,4-thiadiazol-2-yl}acetamide]
21 | 224 nM | – | CCc1nnc(SCC(=O)Nc2nnc(-c3ccc(O)cc3)s2)n1CC [Example 21, 2-[(diethyl-4H-1,2,4-triazol-3-yl)sulfanyl]-N-[5-(4-hydroxyphenyl)-1,3,4-thiadiazol-2-yl]acetamide]
22 | 249 nM | – | CCn1c(CCOC)nnc1SCC(=O)Nc1nnc(-c2ccccc2)s1 [Example 22, 2-{[4-ethyl-5-(2-methoxyethyl)-4H-1,2,4-triazol-3-yl]sulfanyl}-N-(5-phenyl-1,3,4-thiadiazol-2-yl)acetamide]
23 | 39 nM | 7.4 | CCn1c(CCOC)nnc1SCC(=O)Nc1nnc(-c2ccc(OC(C)C)cc2)s1 [Example 23, 2-{[4-ethyl-5-(2-methoxyethyl)-4H-1,2,4-triazol-3-yl]sulfanyl}-N-{5-[4-(propan-2-yloxy)phenyl]-1,3,4-thiadiazol-2-yl}acetamide]
24 | 41 nM | 7.4 | CCCc1ccc(-c2nnc(NC(=O)CSc3nnc(CCOC)n3CC)s2)cc1 [Example 24, 2-{[4-ethyl-5-(2-methoxyethyl)-4H-1,2,4-triazol-3-yl]sulfanyl}-N-[5-(4-propylphenyl)-1,3,4-thiadiazol-2-yl]acetamide]
25 | 42 nM | – | CCOc1ccc(-c2nnc(NC(=O)CSc3nnc(CC)n3CC)s2)cc1 [Example 25, 2-[(diethyl-4H-1,2,4-triazol-3-yl)sulfanyl]-N-[5-(4-ethoxyphenyl)-1,3,4-thiadiazol-2-yl]acetamide]
26 | 43 nM | – | CCc1nnc(SCC(=O)Nc2nnc(-c3ccc(OCCF)cc3)s2)n1CC [Example 26, 2-[(diethyl-4H-1,2,4-triazol-3-yl)sulfanyl]-N-{5-[4-(2-fluoroethoxy)phenyl]-1,3,4-thiadiazol-2-yl}acetamide]
27 | 69 nM | – | CCOc1ccc(-c2nnc(NC(=O)CSc3nnc(C(C)C)n3CC)s2)cc1 [Example 27, N-[5-(4-ethoxyphenyl)-1,3,4-thiadiazol-2-yl]-2-{[4-ethyl-5-(propan-2-yl)-4H-1,2,4-triazol-3-yl]sulfanyl}acetamide]
28 | 44 nM | – | CCn1c(SCC(=O)Nc2nnc(-c3ccc(OCCF)cc3)s2)nnc1C(C)C [Example 28, 2-{[4-ethyl-5-(propan-2-yl)-4H-1,2,4-triazol-3-yl]sulfanyl}-N-{5-[4-(2-fluoroethoxy)phenyl]-1,3,4-thiadiazol-2-yl}acetamide]
29 | 90 nM | – | CCn1c(SCC(=O)Nc2nnc(-c3ccc(OC(C)C)cc3)s2)nnc1C(C)C [Example 29, 2-{[4-ethyl-5-(propan-2-yl)-4H-1,2,4-triazol-3-yl]sulfanyl}-N-{5-[4-(propan-2-yloxy)phenyl]-1,3,4-thiadiazol-2-yl}acetamide]
30 | 21 nM | – | CCc1nnc(SCC(=O)Nc2nnc(-c3ccc(OCCOC)cc3)s2)n1CC [Example 30, 2-[(diethyl-4H-1,2,4-triazol-3-yl)sulfanyl]-N-{5-[4-(2-methoxyethoxy)phenyl]-1,3,4-thiadiazol-2-yl}acetamide]
